# Legend:
# [1] = Solubilization of FITC by hygromycin; assay type: physicochemical
# Excerpt: For conjugating a hydrophobic cargo, the drug, activated for amine conjugation (in the following experiments, NHS and isothiocynate chemistries were used) was initially reacted in an aqueous solution (NaHCO3 0.1 M pH=8.5) of an aminoglycoside at a concentration lower than the number of available amine groups (to leave one amine available for the subsequent conjugation to the carrier). The reaction was stirred gently for overnight at room temperature. Then the solution was titrated with HCl and Na-citrate buffer was added to final concentration of 0.1 M (pH=5.5). This solution was brought to a final molar concentration of 0.75 M NaCl and finally the carrier bacteriophages was added followed by immediate addition of EDC at concentration of ×100 molar excess over the target carboxyl side chains of the targeted drug carrier. This reaction was stirred gently for 1-2 hours at room temperature, followed by exhaustive dialysis against PBS/0.3 M NaCl. This process is illustrated in FIG. 13.
# EDC mediated conjugation of aminoglycosides was first accomplished by using hygromycin as a model linker. hygromycin contains only two primary amines, one for drug conjugation and the other for conjugation to a carrier. Hygromycin was initially conjugated to FITC as described above.
# susceptible bacteria = experiment: Growth inhibition of susceptible bacteria by the chloramphenicol-prodrug; assay type: cell-based; conditions: concentrations up to ×100 of the free chloramphenicol IC50
# [2] = Stability of the CAM-linker adduct without serum (pH, PBS), HPLC; assay type: physicochemical
# Procedure: To test the CAM release rate, a reverse phase HPLC analysis was done based on the fact that elution time of free CAM is about 9 min while the CAM-linker adduct is eluted about 16 min after sample injection into a reverse phase C18 column. This was done as follows: reverse phase HPLC was used to measure the chloramphenicol release rate following the incubation of chloramphenicol-prodrug in 10% or in 99% horse serum, or without serum, all in PBS. A reverse phase C-18 column was used on a LabChrom L7400 MERCK HITACHI machine with acetonitrile:water (30:70) in the mobile phase at 1 ml/min flow rate. Under these conditions, free chloramphenicol is eluted 9 min after sample loading while the intact chloramphenicol-prodrug is eluted 16 min after sample loading. The % of released chloramphenicol was calculated by dividing the area of the 9 min peak by the total peak area of all relevant peaks and multiplying by 100.
# serum esterases = experiment: Chloramphenicol release from its linker in horse serum, reverse phase HPLC
# Procedure: CAM release rate from its linker in 99% horse serum. (A) Reverse phase HPLC was used to measure the breakdown rate following the incubation for the indicated time periods in 99% horse serum at 37° C. Free chloramphenicol (marked by black arrows) is eluted 9 min after sample loading while intact chloramphenicol-linker adduct (marked by gray arrows) is eluted 16 min after sample loading. (B) release rate of chloramphenicol from its linker in 10% horse serum (gray bars) or without serum (in PBS, black bars) was evaluated by HPLC as in A, the % released chloramphenicol was calculated by dividing the area of the 9 min peak by the total peak area of all relevant peaks.
# To test the CAM release rate, a reverse phase HPLC analysis was done based on the fact that elution time of free CAM is about 9 min while the CAM-linker adduct is eluted about 16 min after sample injection into a reverse phase C18 column. This was done as follows: reverse phase HPLC was used to measure the chloramphenicol release rate following the incubation of chloramphenicol-prodrug in 10% or in 99% horse serum, or without serum, all in PBS. […] The % of released chloramphenicol was calculated by dividing the area of the 9 min peak by the total peak area of all relevant peaks and multiplying by 100.
# Staphylococcus aureus = experiment: Growth of Staphylococcus aureus treated with drug-carrying peptide-displaying phages; assay type: cell-based; conditions: free drug at concentration equivalent to that released by the phages
# Excerpt: FIG. 11. The effect of drug-carrying peptide-displaying phages on the growth of Staphylococcus aureus. (A) Growth curves of SA cells treated with SA-specific chloramphenicol prodrug-conjugated phage A12C (triangles), chloramphenicol prodrug-conjugated irrelevant phage F2b (circles), non conjugated SA-specific phage A12C as negative control (squares). (B) Growth curves of SA cells treated with SA-specific chloramphenicol prodrug-conjugated phage A12C (triangles) or various concentration of free chloramphenicol: 0.533 μg/ml (large filled circles), 1.0625 μg/ml (small open circles), 2.125 μg/ml (large open circles) or cells grown without any growth inhibitor (filled squares). Error bars represent the standard deviation of the data.
# Phage A12C was chosen to assess the targeting effect of chloramphenicol-conjugated S. aureus-specific peptide-displaying phages. Conjugates were evaluated for their effect on bacterial growth as follows: an overnight bacterial culture was diluted ×100 in PBS. 1 ml of diluted bacteria was collected by centrifugation at 14,000 RPM and pellet re-suspended in 100 μl PBS. 10 μl of this bacterial suspension was mixed with 100 μl of 10^12 phages in ml PBS, and then incubated for 1 hr. […] Growth was recorded after dilution into the TSB medium by recording the optical density (OD) at 600 nm.
structure (smiles),measurement,setting,value
O=C1OC2(c3ccc(O)cc3Oc3cc(O)ccc32)c2ccc(N=C=S)cc21 [FITC],solubility in aqueous buffer,[1]; FITC stock solution (38.9 mg/ml in DMSO) added to equal volume of buffer without aminoglycosides,immediate formation of precipitate
same,solubility in aqueous buffer,"[1]; conjugated to hygromycin, molar ratio 10 hygromycin:1 FITC",immediate solubilization
O=C(CCCC(=O)ON1C(=O)CCC1=O)OC[C@@H](NC(=O)C(Cl)Cl)[C@H](O)c1ccc([N+](=O)[O-])cc1 [chloramphenicol-prodrug],inhibition of the growth of susceptible bacteria,susceptible bacteria,did not inhibit the growth
same,spontaneous hydrolysis rate of the ester bond,"[2]; PBS alone, entire 48 h period",less than 5%
same,stability of CAM-linker adduct,[2]; pH values between 6-8,stable
same,release rate kinetics,"serum esterases; 10% horse serum, monitored over 48 hours, compared with 99% serum after correcting for concentration",same linear kinetics
same,CAM released from the linker,"serum esterases; 1 hr incubation in 99% horse serum at 37° C., linear kinetics",about 15%
O=C(N[C@H](CO)[C@H](O)c1ccc([N+](=O)[O-])cc1)C(Cl)Cl [chloramphenicol],growth of the SA bacteria (OD 600 nm),Staphylococcus aureus,did not retard

# Reference: patent US7985573B2, “Targeted drug-carrying bacteriophages” (priority 2005, dated 2011)
